What was measured:
[1] = tested on: crabgrass; assay: Test A pre-/postemergence greenhouse test; assay type: in vivo, Digitaria sanguinalis; conditions: for Crabgrass, Large plant response rating: 0 to 100 scale; for Plant response rating, Crabgrass, Large: 0 to 100 scale where 0 is no effect and 100 is complete control
Outline: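 Test compounds in non-phytotoxic solvent with surfactant were applied as a preemergence soil spray to seeded loam/sand pots and, concurrently, postemergence to plants at 2–10 cm, one- to two-leaf stage. About ten days in greenhouse, then injury visually rated against untreated controls.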

[2] = tested on: southern sandbur; assay: Test F preemergence test; assay type: in vivo, Cenchrus echinatus; conditions: scale 0 to 100
Outline: (§1)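 Visual ratings relative to controls, taken after 14 to 21 days in a greenhouse. Test chemicals, formulated in a surfactant-containing non-phytotoxic solvent mixture, were applied preemergence to sown seeds or postemergence to sugarcane plants.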

[3] = tested on: green foxtail; assay: Test F preemergence test; assay type: in vivo, Setaria viridis; conditions: scale 0 to 100
Outline: as §1

[4] = tested on: Surinam grass; assay: Test F preemergence test; assay type: in vivo, Brachiaria decumbens; conditions: scale 0 to 100
Outline: as §1

[5] = tested on: goosegrass; assay: Test F preemergence test; assay type: in vivo, Eleusine indica; conditions: scale 0 to 100
Outline: as §1

[6] = tested on: Italian ryegrass; assay: Test F preemergence test; assay type: in vivo, Lolium multiflorum; conditions: scale 0 to 100
Outline: as §1

[7] = tested on: large crabgrass; assay: Test F preemergence test; assay type: in vivo, Digitaria sanguinalis; conditions: scale 0 to 100
Outline: as §1

[8] = tested on: downy brome; assay: Test C pre-/postemergence test; assay type: in vivo, Bromus tectorum
Outline: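 Test chemicals were formulated with surfactant in a non-phytotoxic solvent and sprayed both on freshly planted seeds (preemergence) and on 1- to 4-leaf plants of 2–18 cm (postemergence). Flooded-paddy pots received compound directly into 3 cm of standing water, maintained for the test.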

[9] = tested on: field bindweed; assay: Test F preemergence test; assay type: in vivo, Convolvulus arvensis; conditions: scale 0 to 100
Outline: as §1

[10] = tested on: itchgrass; assay: Test F preemergence test; assay type: in vivo, Rottboellia cochinchinensis; conditions: scale 0 to 100
Outline: as §1

[11] = tested on: catchweed bedstraw; assay: Test C pre-/postemergence test; assay type: in vivo, Galium aparine
Text: Seeds of plant species selected from blackgrass (Alopecurus myosuroides), downy brome (Bromus tectorum), green foxtail (Setaria viridis), Italian ryegrass (Lolium multiflorum), wheat (Triticum aestivum), wild oat (Avena fatua), catchweed bedstraw (Galium aparine), Russian thistle (Salsola kali), […] (Cynodon dactylon), Surinam grass (Brachiaria decumbens), cocklebur (Xanthium strumarium), corn (Zea mays), crabgrass (Digitaria sanguinalis), woolly cupgrass (Eriochloa villosa), giant foxtail (Setaria faberii), Goosegrass (Eleusin indica), johnsongrass (Sorghum halepense), kochia (Kochia scoparia), lambsquarters (Chenopodium album), morningglory (Ipomoea coccinea), eastern black nightshade (Solanum ptycanthum), yellow nutsedge (Cyperus esculentus), pigweed (Amaranthus retroflexus), common ragweed (Ambrosia elation), soybean (Glycine max), common (oilseed) sunflower (Helianthus annuus), and velvetleaf (Abutilon theophrasti) were planted and treated preemergence with test chemicals formulated in a non-phytotoxic solvent mixture which included a surfactant. At the same time, plants selected from these crop and weed species and also winter barley (Hordeum vulgare), canarygrass (Phalaris minor), and chickweed (Stellaria media) were treated with postemergence applications of some of the test chemicals formulated in the same manner. Plants ranged in height from 2 to 18 cm (1- to 4-leaf stage) for postemergence treatments. […] At time of treatment, test pots were flooded to 3 cm above the soil surface, treated by application of test compounds directly to the paddy water, and then maintained at that water depth for the duration of the test. […] A dash (-) response means no test result.

[12] = tested on: johnsongrass; assay: Test F preemergence test; assay type: in vivo, Sorghum halepense; conditions: scale 0 to 100
Outline: as §1

[13] = tested on: common ragweed; assay: Test F preemergence test; assay type: in vivo, Ambrosia elation; conditions: scale 0 to 100
Outline: as §1

[14] = Postemergence, 500 g ai/ha, 0 is no effect, 100 is complete control
[15] = Preemergence, 125 g ai/ha, 0 no effect, 100 complete control
[16] = 31 g ai/ha, Preemergence, scale 0 to 100
[17] = 62 g ai/ha, preemergence, scale 0 (no effect) to 100 (complete control)
[18] = Postemergence, 62 g ai/ha, scale 0 to 100, 0 no effect, 100 complete control
[19] = Postemergence, 125 g ai/ha, scale 0 to 100, 0 no effect, 100 complete control
[20] = Postemergence, 250 g ai/ha, scale 0 to 100, 0 no effect, 100 complete control
[21] = preemergence, 125 g ai/ha, scale 0 (no effect) to 100 (complete control)

CC(c1c(C(F)(F)F)nn(C)c1OC(F)F)S(=O)(=O)c1cccc[n+]1[O-] (stereo not drawn) [Compound 5]
40: Plant response rating, Ryegrass, Italian ([6]; Preemergence, 16 g ai/ha)
25: Bromegrass, Downy plant response rating [8, 21] | Plant response rating, Itchgrass ([10]; Preemergence, 16 g ai/ha) | Plant response rating, Johnsongrass ([12]; 8 g ai/ha, preemergence)
50: Plant response rating, Johnsongrass ([12]; Preemergence, 16 g ai/ha) | Plant response rating, Ragweed ([13]; 8 g ai/ha, preemergence)
15: Plant response rating, Sandbur ([2]; 8 g ai/ha, preemergence)
10: Plant response rating, Goosegrass ([5]; 8 g ai/ha, preemergence) | Plant response rating, Ryegrass, Italian ([6]; 8 g ai/ha, preemergence) | Plant response rating, Crabgrass, Large ([7]; 8 g ai/ha, preemergence) | Plant response rating, Itchgrass ([10]; 8 g ai/ha, preemergence)
65: Plant response rating, Ragweed ([13]; Preemergence, 16 g ai/ha)
60: Plant response rating, Ryegrass, Italian ([6]; Preemergence, 31 g ai/ha) | Plant response rating (0 to 100), Bromegrass, Downy ([8]; Preemergence, 250 g ai/ha)
70: Plant response rating, Foxtail, Green ([3]; Preemergence, 31 g ai/ha)
100: Plant response rating, Crabgrass, Large ([1]; Preemergence, 500 g ai/ha) | Sandbur plant response rating ([2]; 62 g ai/ha, Preemergence) | Plant response rating, Sandbur ([2]; Preemergence, 31 g ai/ha) | Surinam Grass plant response rating ([4]; 62 g ai/ha, Preemergence) | Goosegrass plant response rating ([5]; 62 g ai/ha, Preemergence) | Plant response rating (0 to 100), Galium ([11]; Preemergence, 250 g ai/ha) | Galium plant response rating [11, 21] | Johnsongrass plant response rating ([12]; 62 g ai/ha, Preemergence) | Plant response rating, Johnsongrass ([12]; Preemergence, 31 g ai/ha) | Ragweed plant response rating ([13]; 62 g ai/ha, Preemergence)
35: Plant response rating, Itchgrass ([10]; Preemergence, 31 g ai/ha)
0: Plant response rating, Foxtail, Green ([3]; 8 g ai/ha, preemergence) | Plant response rating, Surinam Grass ([4]; 8 g ai/ha, preemergence) | Bromegrass, Downy plant response rating [8, 16] | Plant response rating (0 to 100), Bromegrass, Downy ([8]; Postemergence, 31 g ai/ha) | Plant response rating, Bromegrass, Downy [8, 18] | Plant response rating, Bromegrass, Downy [8, 19] | Plant response rating, Bromegrass, Downy [8, 20] | Plant response rating, Field Bindweed ([9]; 8 g ai/ha, preemergence) | Field Bindweed plant response rating ([9]; 62 g ai/ha, Preemergence) | Plant response rating, Field Bindweed ([9]; Preemergence, 16 g ai/ha) | Plant response rating, Field Bindweed ([9]; Preemergence, 31 g ai/ha)
90: Crabgrass, Large plant response rating [1, 14] | Foxtail, Green plant response rating ([3]; 62 g ai/ha, Preemergence) | Plant response rating, Surinam Grass ([4]; Preemergence, 31 g ai/ha) | Plant response rating, Goosegrass ([5]; Preemergence, 31 g ai/ha) | Itchgrass plant response rating ([10]; 62 g ai/ha, Preemergence) | Galium plant response rating [11, 17]
20: Bromegrass, Downy plant response rating [8, 17]
30: Plant response rating, Foxtail, Green ([3]; Preemergence, 16 g ai/ha)
75: Plant response rating, Sandbur ([2]; 16 g ai/ha, preemergence) | Ryegrass, Italian plant response rating ([6]; 62 g ai/ha, Preemergence) | Plant response rating, Ragweed ([13]; Preemergence, 31 g ai/ha)
85: Plant response rating, Goosegrass ([5]; Preemergence, 16 g ai/ha) | Plant response rating, Crabgrass, Large ([7]; Preemergence, 31 g ai/ha) | Galium plant response rating [11, 16]
95: Crabgrass, Large plant response rating ([7]; 62 g ai/ha, Preemergence)
80: Crabgrass, Large plant response rating ([1]; Postemergence, 125 g ai/ha, 0 is no effect, 100 is complete control) | Crabgrass, Large plant response rating [1, 15] | Plant response rating, Surinam Grass ([4]; 16 g ai/ha, preemergence) | Plant response rating, Crabgrass, Large ([7]; Preemergence, 16 g ai/ha)

Cn1nc(C(F)(F)F)c(C[S+]([O-])c2ccc(F)c[n+]2[O-])c1OCC(F)(F)F (stereo not drawn) [Compound 67]
40: Plant response rating, Foxtail, Green ([3]; 16 g ai/ha, preemergence) | Plant response rating, Ryegrass, Italian ([6]; 16 g ai/ha, preemergence) | Plant response rating, Bromegrass, Downy [8, 19]
100: Crabgrass, Large plant response rating [1, 15] | Plant response rating, Crabgrass, Large ([1]; Preemergence, 500 g ai/ha) | Sandbur plant response rating ([2]; 125 g ai/ha, preemergence) | Plant response rating, Sandbur ([2]; Preemergence, 62 g ai/ha) | Plant response rating, Sandbur ([2]; Preemergence, 31 g ai/ha) | Foxtail, Green plant response rating ([3]; 125 g ai/ha, preemergence) | Surinam Grass plant response rating ([4]; 125 g ai/ha, preemergence) | Plant response rating, Surinam Grass ([4]; Preemergence, 62 g ai/ha) | Goosegrass plant response rating ([5]; 125 g ai/ha, preemergence) | Ryegrass, Italian plant response rating ([6]; 125 g ai/ha, preemergence) | Plant response rating, Ryegrass, Italian ([6]; Preemergence, 62 g ai/ha) | Crabgrass, Large plant response rating ([7]; 125 g ai/ha, preemergence) | Bromegrass, Downy plant response rating ([8]; 62 g ai/ha, Preemergence, scale 0 to 100) | Bromegrass, Downy plant response rating ([8]; 125 g ai/ha, preemergence, scale 0 (no effect) to 100 (complete control)) | Plant response rating, Bromegrass, Downy ([8]; Preemergence, 31 g ai/ha, scale 0 to 100 (0 no effect, 100 complete control)) | Bromegrass, Downy plant response rating ([8]; preemergence, 250 g ai/ha, scale 0 (no effect) to 100 (complete control)) | Itchgrass plant response rating ([10]; 125 g ai/ha, preemergence)
90: Plant response rating, Crabgrass, Large ([1]; Postemergence, 125 g ai/ha) | Crabgrass, Large plant response rating [1, 14] | Plant response rating, Ragweed ([13]; Preemergence, 62 g ai/ha)
80: Foxtail, Green plant response rating ([3]; 62 g ai/ha, Preemergence) | Goosegrass plant response rating ([5]; 62 g ai/ha, Preemergence) | Field Bindweed plant response rating ([9]; 125 g ai/ha, preemergence)
20: Plant response rating, Ragweed ([13]; 16 g ai/ha, preemergence)
98: Crabgrass, Large plant response rating ([7]; 62 g ai/ha, Preemergence) | Plant response rating, Crabgrass, Large ([7]; Preemergence, 31 g ai/ha) | Ragweed plant response rating ([13]; 125 g ai/ha, preemergence)
15: Plant response rating, Itchgrass ([10]; 16 g ai/ha, preemergence)
0: Plant response rating (0 to 100), Bromegrass, Downy ([8]; Postemergence, 31 g ai/ha) | Plant response rating, Field Bindweed ([9]; 16 g ai/ha, preemergence)
35: Field Bindweed plant response rating ([9]; 62 g ai/ha, Preemergence) | Plant response rating, Johnsongrass ([12]; 16 g ai/ha, preemergence)
60: Plant response rating, Sandbur ([2]; 16 g ai/ha, preemergence) | Plant response rating, Foxtail, Green ([3]; Preemergence, 31 g ai/ha) | Plant response rating, Bromegrass, Downy [8, 20]
50: Plant response rating, Goosegrass ([5]; 16 g ai/ha, preemergence)
65: Plant response rating, Crabgrass, Large ([7]; 16 g ai/ha, preemergence) | Itchgrass plant response rating ([10]; 62 g ai/ha, Preemergence) | Plant response rating, Ragweed ([13]; Preemergence, 31 g ai/ha)
10: Plant response rating, Bromegrass, Downy [8, 18] | Plant response rating, Field Bindweed ([9]; Preemergence, 31 g ai/ha)
95: Plant response rating, Surinam Grass ([4]; Preemergence, 31 g ai/ha) | Johnsongrass plant response rating ([12]; 125 g ai/ha, preemergence)
75: Plant response rating, Surinam Grass ([4]; 16 g ai/ha, preemergence) | Plant response rating, Ryegrass, Italian ([6]; Preemergence, 31 g ai/ha) | Johnsongrass plant response rating ([12]; 62 g ai/ha, Preemergence) | Plant response rating, Johnsongrass ([12]; Preemergence, 31 g ai/ha)
25: Plant response rating, Itchgrass ([10]; Preemergence, 31 g ai/ha)
70: Plant response rating, Goosegrass ([5]; Preemergence, 31 g ai/ha)

Reference: patent publication US20100298141A1, “SUBSTITUTED PYRIDINE N-OXIDE HERBICIDES” (E. I. DU PONT DE NEMOURS AND COMPANY, priority 2007, published 2010)
